Earlier results in US11825820B2, “Poly-glutamine androgen receptor knock-in mouse models, reagents and methods” (priority 2017, dated 2023).
Where two headings read alike, the source gives them in different places.

Columns and labels:
[1] = test system: patients with NASH/NAFLD scores of 3 to 8
[2] = test system: animal models of NASH
[3] = 100 mg, 250 mg vs Pioglitazone 45 mg; 28 days
[4] = test system: NASH; settings: 30 mg/day
[5] = test system: patients with nonalcoholic steatohepatitis; settings: 24 weeks

CSc1ccc(C(=O)/C=C/c2cc(C)c(OC(C)(C)C(=O)O)c(C)c2)cc1 [Elafibranor]
anti-inflammatory effects ([1]; Phase IIb claims): Anti-inflammatory effects | insulin sensitivity and glucose homeostasis ([1]; Phase IIb claims): Improved insulin sensitivity and glucose homeostasis | markers of hepatic dysfunction, including liver enzymes ALT, AST, GGT, ALP ([1]; Phase IIb claims): Improvement in markers of hepatic dysfunction | plasma lipids (triglyceride, LDL-C, HDL-C) ([1]; Phase IIb claims): reduction in triglyceride and LDL-C and increased HDL-C levels | RR, Elafibranor vs placebo ([1]; Phase IIb, after withdrawal of NAS <4 patients): 1.9 | positive result, Elafibranor vs placebo ([1]; Phase IIb, after withdrawal of NAS <4 patients, placebo 12.7%, p=0.046): 22.4% | safety profile ([1]; clinical trials, toxicology studies up to two-year carcinogenicity): good safety profile with no unwanted side effects | statistical significance of results across the entire study population ([1]; entire study population incl. NAS <4 patients): prevented Elafibranor from having statistically significant results | histological parameters NASH (steatosis, inflammation, fibrosis) [2]: Beneficial effects on histological parameters NASH

COc1cccc(C(=O)COc2ccc(CC3SC(=O)[N-]C3=O)cc2)c1.[K+] (stereo not drawn) [MSCD-0602K]
adiponectin levels vs Pioglitazone [3]: equivalent to Pioglitazone | overall glucose control vs Pioglitazone [3]: equivalent to Pioglitazone

CCc1ccc(CCOc2ccc(CC3SC(=O)NC3=O)cc2)nc1 (stereo not drawn) [Pioglitazone]
side effects [4]: weight gain, edema, bone fractures and increased risk of bladder cancer

Cc1cc(F)c(C(=O)Nc2cccc(-c3nncn3C(C)C)n2)cc1-n1cnc(C2CC2)c1 [selonsertib]
proportion of patients with a one or more stage reduction in fibrosis ([5]; 6-mg selonsertib group, 8 of 27, 95% CI 14-50): 30% | proportion of patients with a one or more stage reduction in fibrosis ([5]; 18-mg selonsertib group, 13 of 30, 95% CI 26-63): 43%

B1: simtuzumab (antibody, chains of the INN, looked up, V domains shown)
VH: QVQLVQSGAEVKKPGASVKVSCKASGYAFTYYLIEWVRQAPGQGLEWIGVINPGSGGTNYNEKFKGRATITADKSTSTAYMELSSLRSEDTAVYFCARNWMNFDYWGQGTTVTVSS
VL: DIVMTQTPLSLSVTPGQPASISCRSSKSLLHSNGNTYLYWFLQKPGQSPQFLIYRMSNLASGVPDRFSGSGSGTDFTLKISRVEAEDVGVYYCMQHLEYPYTFGGGTKVEIK
notes: comparator group (simtuzumab-alone) in the selonsertib Phase 2 study
proportion of patients with a one or more stage reduction in fibrosis ([5]; simtuzumab-alone group, 2 of 10, 95% CI 3-56): 20%
